Results reported in publication PMC11551917 (RSC Advances, 2024).

Target: Jack-bean urease (Canavalia ensiformis, UniProt P07374)
Assay: indophenol ammonia assay, […] nm
Format: biochemical

Sequence of Jack-bean urease (P07374 whole entry, looked up): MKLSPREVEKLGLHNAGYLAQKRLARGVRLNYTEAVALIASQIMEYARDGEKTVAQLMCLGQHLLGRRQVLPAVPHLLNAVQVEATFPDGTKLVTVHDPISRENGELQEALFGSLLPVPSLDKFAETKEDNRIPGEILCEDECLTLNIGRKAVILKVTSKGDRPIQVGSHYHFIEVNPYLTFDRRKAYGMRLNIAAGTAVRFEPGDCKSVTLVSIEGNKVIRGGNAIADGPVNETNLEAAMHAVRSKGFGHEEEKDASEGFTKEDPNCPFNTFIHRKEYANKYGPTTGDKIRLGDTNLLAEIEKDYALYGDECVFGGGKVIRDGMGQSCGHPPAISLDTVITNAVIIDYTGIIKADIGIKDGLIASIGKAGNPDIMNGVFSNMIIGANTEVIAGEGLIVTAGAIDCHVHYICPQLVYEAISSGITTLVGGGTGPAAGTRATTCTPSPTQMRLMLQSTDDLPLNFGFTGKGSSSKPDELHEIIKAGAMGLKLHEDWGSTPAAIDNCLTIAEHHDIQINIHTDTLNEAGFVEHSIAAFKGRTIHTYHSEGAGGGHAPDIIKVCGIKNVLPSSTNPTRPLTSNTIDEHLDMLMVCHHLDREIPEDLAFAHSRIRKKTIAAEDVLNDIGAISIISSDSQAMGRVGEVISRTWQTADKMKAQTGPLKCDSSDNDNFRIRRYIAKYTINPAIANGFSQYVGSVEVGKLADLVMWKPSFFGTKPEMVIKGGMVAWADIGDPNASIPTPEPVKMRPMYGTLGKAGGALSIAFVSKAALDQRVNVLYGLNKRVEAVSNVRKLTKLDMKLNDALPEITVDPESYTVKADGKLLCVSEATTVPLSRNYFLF

IC50 [µM]	SMILES
31.4 ± 0.48	Nc1cccc(C(=O)O)c1 [3-ABA]
24.5 ± 0.47	NC(N)=S [Thiourea]
